Experimental data: publication PMC4485237, “SPECT/CT Imaging of High-Risk Atherosclerotic Plaques using Integrin-Binding RGD Dimer Peptides” (Scientific Reports, 2015)

Molecular target: T1, integrin αvβ3 (Mus musculus, UniProt O54890+P43406)
T1 construct: from tissue; host or cells: aorta (atherosclerotic plaque and normal regions) of living ApoE-/- and wild-type C57BL/6J mice
T1 sequence (P43406 31-1044): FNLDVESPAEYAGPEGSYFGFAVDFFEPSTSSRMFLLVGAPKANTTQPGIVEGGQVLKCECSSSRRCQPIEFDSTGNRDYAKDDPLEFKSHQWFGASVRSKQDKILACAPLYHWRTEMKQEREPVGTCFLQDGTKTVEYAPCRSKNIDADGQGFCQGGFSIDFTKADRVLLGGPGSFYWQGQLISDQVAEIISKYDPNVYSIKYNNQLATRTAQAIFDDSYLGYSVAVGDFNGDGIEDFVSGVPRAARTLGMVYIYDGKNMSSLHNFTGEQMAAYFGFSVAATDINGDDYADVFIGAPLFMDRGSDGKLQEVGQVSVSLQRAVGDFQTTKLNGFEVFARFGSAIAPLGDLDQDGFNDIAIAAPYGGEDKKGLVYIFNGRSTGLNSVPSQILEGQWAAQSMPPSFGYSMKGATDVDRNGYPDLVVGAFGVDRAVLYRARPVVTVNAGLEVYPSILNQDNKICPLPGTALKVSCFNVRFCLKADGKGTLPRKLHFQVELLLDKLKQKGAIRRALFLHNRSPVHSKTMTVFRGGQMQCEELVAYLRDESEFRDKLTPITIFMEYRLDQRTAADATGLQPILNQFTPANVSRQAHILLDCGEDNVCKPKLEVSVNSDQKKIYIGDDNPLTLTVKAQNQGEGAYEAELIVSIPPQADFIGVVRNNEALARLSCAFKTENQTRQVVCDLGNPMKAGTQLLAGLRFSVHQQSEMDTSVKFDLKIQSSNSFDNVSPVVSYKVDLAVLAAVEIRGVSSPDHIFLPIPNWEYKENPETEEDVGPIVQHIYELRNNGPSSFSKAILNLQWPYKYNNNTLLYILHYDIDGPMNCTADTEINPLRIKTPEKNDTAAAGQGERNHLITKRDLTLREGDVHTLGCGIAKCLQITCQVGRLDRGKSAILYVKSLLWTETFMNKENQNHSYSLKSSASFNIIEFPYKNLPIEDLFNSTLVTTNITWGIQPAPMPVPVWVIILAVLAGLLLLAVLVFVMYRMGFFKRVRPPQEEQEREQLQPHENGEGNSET
T1 sequence (O54890 26-787): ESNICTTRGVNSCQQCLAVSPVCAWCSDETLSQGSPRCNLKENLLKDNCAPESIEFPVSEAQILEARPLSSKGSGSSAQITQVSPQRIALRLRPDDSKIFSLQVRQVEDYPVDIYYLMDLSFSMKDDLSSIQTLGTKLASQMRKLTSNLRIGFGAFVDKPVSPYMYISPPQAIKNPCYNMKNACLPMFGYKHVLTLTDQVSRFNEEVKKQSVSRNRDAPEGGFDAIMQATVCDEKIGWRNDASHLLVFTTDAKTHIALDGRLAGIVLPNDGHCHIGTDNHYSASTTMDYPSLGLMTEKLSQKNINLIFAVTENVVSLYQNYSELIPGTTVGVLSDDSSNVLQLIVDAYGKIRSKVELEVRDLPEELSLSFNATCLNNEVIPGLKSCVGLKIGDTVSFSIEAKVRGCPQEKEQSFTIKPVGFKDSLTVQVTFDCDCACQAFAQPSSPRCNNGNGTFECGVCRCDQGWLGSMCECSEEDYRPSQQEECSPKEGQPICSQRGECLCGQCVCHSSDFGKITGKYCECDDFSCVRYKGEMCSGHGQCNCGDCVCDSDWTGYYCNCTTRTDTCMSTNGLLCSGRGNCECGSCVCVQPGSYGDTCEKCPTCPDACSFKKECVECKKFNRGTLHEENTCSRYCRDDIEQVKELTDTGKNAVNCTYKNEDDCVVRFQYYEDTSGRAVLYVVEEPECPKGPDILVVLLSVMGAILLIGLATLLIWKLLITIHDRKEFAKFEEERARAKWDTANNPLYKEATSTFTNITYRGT
Test: In vivo SPECT/CT imaging and ROI quantification of radiotracer uptake in aorta of atherosclerotic (ApoE-/-, high-cholesterol diet) and wild-type mice
Conditions: 30 min post-injection, RGD and RAD tracers in the same mouse on consecutive days
Procedure: All animal experiments were carried out in accordance with the approved guidelines by the Seoul National University Bundang Hospital Animal Care and Use Committee. Apolipoprotein E knock out mice (male, n = 10) and C57BL/6J mice (male, n = 3) were purchased from the Jackson Laboratory (Bar Harbor, Maine, USA) at 8–10 weeks of age. The ApoE-/- mice were maintained on a high-cholesterol diet (0.2% total cholesterol, Harlan Laboratories, Indianapolis, IN, USA) for 40 weeks. At the time of imaging experiment, the mice had substantial atherosclerotic lesion growth resembling vulnerable plaques in humans. Wild-type mice with the C57BL/6J genetic background had been maintained on a regular diet and were used for the disease controls.
We anesthetized mice with 2% isoflurane gas anesthesia. […] The analysis software HiSPECT (Version 1.0, Bioscan Inc., Poway, CA, USA) and InVivoScope (Version 1.43, Bioscan Inc., Poway, CA, USA) were used for image reconstruction and quantification, respectively. […] Manually drawn two-dimensional regions of interest (ROIs) or three-dimensional volumes of interest (VOIs) were used to determine the accumulated radioactivity in units of %ID/g (with decay corrected to the time of injection) using 37–55.5 MBq radioactivity of ^99mTc as the reference source.

SPECT uptake in aortic arch region containing atherosclerotic plaques (in words): no specific accumulation
Structure (SMILES): [O]=[99Tc](=[O])(=[O])[O-] [^99mTc-pertechnetate]
